From US7238718B2, “Method for treating myolytic disease and method for screening antimyolytic agent” (Osaka Bioscience Institute, priority 2003, dated 2007) come the findings set out here.

In experiment [1] the test system is myolysis induced by bupivacaine hydrochloride in gastrocnemius. Briefly: Quantification of myolysis region by Evans' Blue extraction and absorbance (630 nm). It is filed as in vivo, C57BL/6 mice.
Experiment [2] has the same test system. The experiment is described as follows: Myolysis model induced by bupivacaine hydrochloride, Evans' Blue fluorescence microscopy of gastrocnemius. Format: in vivo, C57BL/6 mice. The settings on record: 10 mg/kg orally; 24 h after bupivacaine hydrochloride 0.5 w/v %, 0.1 ml; FIG. 1. As for the experimental part:
Effect of an H-PGDS inhibitor to myolysis was tested using a myolysis model induced by bupivacaine hydrochloride which is an experimental model for muscular dystrophy (Nonaka I, et al., Acta Neuropathol., 60:167–174, 1983). Bupivacaine hydrochloride (0.5 w/v %, 0.1 ml) was injected into gastrocnemius of C57BL/6 mice (K. K. Oriental Bio Service) (eight weeks old; male) to induce myolysis and, after 24 hours, Evans' Blue dye solution (1.0 w/v %) was intravenously injected from tail vein. After 30 minutes, they were killed by excessive anesthetization and perfused with physiological saline solution, gastrocnemius was excised and quickly frozen. The cryosection was prepared and then accumulated Evans' Blue was observed under a fluorescent microscope. Necrotic legion was enhanced by means of fluorescence.

Experiment [3] has the same test system. Briefly: Nonoperative observation of necrotic lesion using X-ray CT with iopamidol. Format: in vivo, mice. The settings on record: one day after bupivacaine hydrochloride; 15 min after iopamidol i.v.; FIG. 3. As for the experimental part:
Degenerated region was observed by a nonoperative manner using X-ray CT for experimental animals. N,N′-Bis[2-hydroxy-1-(hydroxymethyl)ethyl]-5-[(2S)-2-hydroxypropanoylamino]-2,4,6-triiodoisophthalamide (iopamidol), an X-ray contrast agent for urinary blood vessels, was intravenously injected from tail vein of mice after one day from the treatment with bupivacaine hydrochloride and a laminogram by an X-ray CT after 15 minutes is shown. A region with specific CT values which is noted in the laminogram of gastrocnemius decreased by administration of HQL-79. In the region where retention of the contrast agent is recognized, bleeding and edema as a result of muscular destruction are noted (refer to FIG. 3).

For a further experiment, the system named is myolysis in mdx mice. The experiment is described as follows: Therapeutic effect in mdx mice (Duchenne's muscular dystrophy model), Evans' Blue retention. The settings on record: continuously administered for two weeks; compared with vehicle group; FIG. 5. It is filed as in vivo. The method, then:
HQL-79 was continuously administered for two weeks to mdx mice which is a model animal for Duchenne's muscular dystrophy (Bogdanovich S, et al., Nature, Nov. 28, 2002, 420(6914):418–21) […] and the effect of the HPGDS inhibitor to myolysis was tested. After two weeks from the initiation of the administration, an Evans' Blue dye solution (1.0 w/v %) was intravenously injected from tail vein. After one hour therefrom, the mice were killed by excessive anaesthetization and perfused with physiological saline solution, the gastrocnemius was excised and quickly frozen. The retention of Evans' Blue in the muscle was observed under a fluorescent microscope. Necrotic lesion was enhanced by means of fluorescence. In the mice to which HQL-79 was administered, retention of the dye (grayish white region) which is an index for myolysis decreased as compared with the group to which a vehicle was administered (refer to FIG. 5).

Turning to `c1ccc(C(OC2CCN(CCCc3nnn[nH]3)CC2)c2ccccc2)cc1` [HQL-79, 4-benzhydryloxy-1-{3-(1H-tetrazol-5-yl)-propyl}piperidine], in experiment [1] (HQL-79 group of Example 1, formamide extraction, FIG. 2), the “incorporation of Evans' Blue into gastrocnemius (absorbance 630 nm)” value is reported as “significantly decreased”. Further, in experiment [2], the “degenerated region by necrosis (Evans' Blue fluorescence)” value was “degenerated region by necrosis became small”. Besides, in experiment [3], the “region with specific CT values in laminogram of gastrocnemius” value is on record as “decreased”. For the same compound, the “retention of Evans' Blue dye in muscle (index for myolysis)” value with myolysis in mdx mice is “decreased”.

Turning to `O=C(O)CCn1c2c(c3ccccc31)C[C@H](NS(=O)(=O)c1ccc(F)cc1)CC2` [ramatroban, (+)-(3R)-3-(4-fluorobenzenesulfonamide)-1,2,3,4-tetrahydrocarbazole-9-propionic acid], in experiment [1] (30 mg/kg orally, 1 h before and 18 h after bupivacaine hydrochloride 1 w/v %, 0.05 mL, read at 24 h, FIG. 6), the “amount of Evans' Blue impregnated into the tissue (absorbance 630 nm)” value is “lowered”.
